The values that follow come from patent US9108944B2, “Androgen receptor modulators and uses thereof” (ARAGON PHARMACEUTICALS, INC., priority 2010, dated 2015).

Test [1] addresses T1, AR-VP16 (Homo sapiens, UniProt P10275).
T1 sequence (P10275 560-920 limits assumed): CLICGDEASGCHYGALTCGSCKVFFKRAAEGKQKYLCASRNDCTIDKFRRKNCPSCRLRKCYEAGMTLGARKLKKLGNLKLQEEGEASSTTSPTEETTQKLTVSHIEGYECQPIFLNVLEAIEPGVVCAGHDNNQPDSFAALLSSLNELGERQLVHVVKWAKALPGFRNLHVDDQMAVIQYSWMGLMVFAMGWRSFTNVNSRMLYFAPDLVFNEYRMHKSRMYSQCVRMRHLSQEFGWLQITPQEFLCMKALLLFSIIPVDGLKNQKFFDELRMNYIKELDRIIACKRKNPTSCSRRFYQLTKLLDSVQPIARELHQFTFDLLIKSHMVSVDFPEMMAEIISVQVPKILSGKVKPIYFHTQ
The test is described as follows: AR-VP16 DNA Binding Assay, antagonist mode (HepG2 cells, 0.1 nM R1881). It counts as cell-based. The gist of the method: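 HepG2 cells transiently transfected with AR-VP16 (Lipofectin), incubated overnight, then treated with compound in RPMI with charcoal-stripped serum. Antagonist mode adds R1881 at 0.1 nM final. Cells lysed after 48 h incubation for read-out.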

In test [2] the target is T1, AR-VP16. The test is described as follows: AR-VP16 DNA Binding Assay, agonist mode (HepG2 cells). It counts as cell-based. To be noted: Emax >20x DMSO control = agonist.

pIC50: −log10 of the molar value.

As for `N#Cc1ncc(N2C(=O)C3(CCC3)N(c3cccc(F)c3F)C2=S)cc1C(F)(F)F` [Compound 72, 5-(5-(2,3-Difluorophenyl)-8-oxo-6-thioxo-5,7-diazaspiro[3.4]octan-7-yl)-3-(trifluoromethyl)picolinonitrile], the pIC50 (usually the negative decadic logarithm of the IC50, by convention in mol/L) at AR-VP16 [1] was over 6.00. Also, the “ARVP16 DNA Binding Assay (Agonist mode): Agonist?” value (shortened to “ARVP16 DNA Binding Assay”) at AR-VP16 [2] is “Yes (Agonist defined as a compound whose Emax in the ARVP16 DNA Binding Assay (Agonist mode) is >20x DMSO control)”.
`N#Cc1ncc(N2C(=O)C3(CCC3)N(c3c(F)cccc3F)C2=S)cc1C(F)(F)F` [Compound 73, 5-(5-(2,6-Difluorophenyl)-8-oxo-6-thioxo-5,7-diazaspiro[3.4]octan-7-yl)-3-(trifluoromethyl)picolinonitrile] had a pIC50 on AR-VP16 [1] of over 6.00. In addition, the “ARVP16 DNA Binding Assay” value on AR-VP16 [2] is “Yes (Agonist defined as a compound whose Emax in the ARVP16 DNA Binding Assay (Agonist mode) is >20x DMSO control)”.
Take `N#Cc1ncc(N2C(=O)C3(CCC3)N(c3ccc(F)cc3F)C2=S)cc1C(F)(F)F` [Compound 76, 5-(5-(2,4-Difluorophenyl)-8-oxo-6-thioxo-5,7-diazaspiro[3.4]octan-7-yl)-3-(trifluoromethyl)picolinonitrile]: the pIC50 at AR-VP16 [1] is over 6.00. Moreover, at AR-VP16 [2], the “ARVP16 DNA Binding Assay” value is given as “Yes (Agonist defined as a compound whose Emax in the ARVP16 DNA Binding Assay (Agonist mode) is >20x DMSO control)”.
For the compound `Cc1cc(N2C(=O)C3(CCC3)N(c3ccc(O)cc3)C2=S)cnc1C#N` [Compound 77, 5-(5-(4-hydroxyphenyl)-8-oxo-6-thioxo-5,7-diazaspiro[3.4]octan-7-yl)-3-methylpicolinonitrile], on AR-VP16 [1], the pIC50 is under 6.00. Besides, the “ARVP16 DNA Binding Assay” value at AR-VP16 [2] is listed as “No (Agonist defined as a compound whose Emax in the ARVP16 DNA Binding Assay (Agonist mode) is >20x DMSO control)”.
Taken in the same sequence, the figures for `CNC(=O)c1ccc(N2C(=S)N(c3cnc(C#N)c(C)c3)C(=O)C23CCC3)cc1` [Compound 78, 4-(7-(6-Cyano-5-methylpyridin-3-yl)-8-oxo-6-thioxo-5,7-diazaspiro[3.4]octan-5-yl)-N-methylbenzamide] were under 6.00 and “No (Agonist defined as a compound whose Emax in the ARVP16 DNA Binding Assay (Agonist mode) is >20x DMSO control)”.
Turning to `N#Cc1ncc(N2C(=O)C3(CCC3)N(c3ccc(S(N)(=O)=O)cc3)C2=S)cc1C(F)(F)F` [Compound 81, 4-(7-(6-cyano-5-(trifluoromethyl)pyridin-3-yl)-8-oxo-6-thioxo-5,7-diazaspiro-[3.4]octan-5-yl)benzenesulfonamide], at AR-VP16 [1], the pIC50 was under 6.00. The “ARVP16 DNA Binding Assay” value at AR-VP16 [2] was “No (Agonist defined as a compound whose Emax in the ARVP16 DNA Binding Assay (Agonist mode) is >20x DMSO control)”.
Compound `CNC(=O)c1ccc(N2C(=S)N(c3ccc(C#N)n4nccc34)C(=O)C23CCC3)cc1F` [Compound 83, 4-(7-(7-Cyanopyrazolo[1,5-a]pyridin-4-yl)-8-oxo-6-thioxo-5,7-diazaspiro[3.4]octan-5-yl)-2-fluoro-N-methylbenzamide] gave a pIC50 on AR-VP16 [1] of under 6.00. Besides, the “ARVP16 DNA Binding Assay” value at AR-VP16 [2] was “No (Agonist defined as a compound whose Emax in the ARVP16 DNA Binding Assay (Agonist mode) is >20x DMSO control)”.
For `Cc1ccc(CN2C(=S)N(c3cnc(C#N)c(C(F)(F)F)c3)C(=O)C23CCC3)cc1` [Compound 84, 5-(5-(4-Methylbenzyl)-8-oxo-6-thioxo-5,7-diazaspiro[3.4]octan-7-yl)-3-(trifluoromethyl)picolinonitrile], the negative-log IC50 (pIC50) on AR-VP16 [1] is over 6.00. The “ARVP16 DNA Binding Assay” value on AR-VP16 [2] is given as “Yes (Agonist defined as a compound whose Emax in the ARVP16 DNA Binding Assay (Agonist mode) is >20x DMSO control)”.
On to `Cc1ccc(CCN2C(=S)N(c3cnc(C#N)c(C(F)(F)F)c3)C(=O)C23CCC3)cc1` [Compound 85, 5-(5-(4-Methylphenethyl)-8-oxo-6-thioxo-5,7-diazaspiro[3.4]octan-7-yl)-3-(trifluoromethyl)picolinonitrile], for which the pIC50 on AR-VP16 [1] is over 6.00. Moreover, the “ARVP16 DNA Binding Assay” value at AR-VP16 [2] is “Yes (Agonist defined as a compound whose Emax in the ARVP16 DNA Binding Assay (Agonist mode) is >20x DMSO control)”.
`N#Cc1ncc(N2C(=O)C3(CCC3)N(c3ccc(CCCO)cc3)C2=S)cc1C(F)(F)F` [Compound 86, 5-(5-(4-(3-hydroxypropyl)phenyl)-8-oxo-6-thioxo-5,7-diazaspiro[3.4]octan-7-yl)-3-(trifluoromethyl)picolinonitrile] had a negative-log IC50 (pIC50) on AR-VP16 [1] of over 6.00. Besides, the “ARVP16 DNA Binding Assay” value at AR-VP16 [2] was “No (Agonist defined as a compound whose Emax in the ARVP16 DNA Binding Assay (Agonist mode) is >20x DMSO control)”.
`N#Cc1ncc(N2C(=O)C3(CCC3)N(c3ccc4cn[nH]c4c3)C2=S)cc1C(F)(F)F` [Compound 88, 5-(5-(1H-Indazol-6-yl)-8-oxo-6-thioxo-5,7-diazaspiro[3.4]octan-7-yl)-3-(trifluoromethyl)picolinonitrile] gave a negative logarithm of the IC50 (pIC50) at AR-VP16 [1] of over 6.00. Also, the “ARVP16 DNA Binding Assay” value on AR-VP16 [2] is given as “No (Agonist defined as a compound whose Emax in the ARVP16 DNA Binding Assay (Agonist mode) is >20x DMSO control)”.
Taken in the same sequence, the figures for `CNC(=O)c1ccc(N2C(=S)N(c3cnc(C#N)c(C(F)(F)F)c3)C(=O)C23CCC3)c(F)c1` [Compound 89, 4-(7-(6-Cyano-5-(trifluoromethyl)pyridin-3-yl)-8-oxo-6-thioxo-5,7-diazaspiro[3.4]octan-5-yl)-3-fluoro-N-methylbenzamide] were over 6.00 and “No (Agonist defined as a compound whose Emax in the ARVP16 DNA Binding Assay (Agonist mode) is >20x DMSO control)”.
As to `CN1CCN(c2ccc(N3C(=S)N(c4cnc(C#N)c(C(F)(F)F)c4)C(=O)C34CCC4)cc2)CC1` [Compound 90, 5-(5-(4-(4-Methylpiperazin-1-yl)phenyl)-8-oxo-6-thioxo-5,7-diazaspiro[3.4]octan-7-yl)-3-(trifluoromethyl)picolinonitrile], the negative-log IC50 (pIC50) at AR-VP16 [1] was under 6.00. Also, the “ARVP16 DNA Binding Assay” value at AR-VP16 [2] is listed as “No (Agonist defined as a compound whose Emax in the ARVP16 DNA Binding Assay (Agonist mode) is >20x DMSO control)”.
`N#Cc1ncc(N2C(=O)C3(CCC3)N(c3ccc(S(=O)(=O)CCc4ccncc4)cc3)C2=S)cc1C(F)(F)F` [Compound 91, 5-(8-Oxo-5-(4-((2-(pyridin-4-yl)ethyl)sulfonyl)phenyl)-6-thioxo-5,7-diazaspiro[3.4]octan-7-yl)-3-(trifluoromethyl)picolinonitrile] showed a pIC50 at AR-VP16 [1] of under 6.00. For the same compound, at AR-VP16 [2], the “ARVP16 DNA Binding Assay” value is “No (Agonist defined as a compound whose Emax in the ARVP16 DNA Binding Assay (Agonist mode) is >20x DMSO control)”.
Turning to `CN1CCN(Cc2ccc(N3C(=S)N(c4cnc(C#N)c(C(F)(F)F)c4)C(=O)C34CCC4)cc2)CC1` [Compound 93, 5-(5-(4-((4-Methylpiperazin-1-yl)methyl)phenyl)-8-oxo-6-thioxo-5,7-diazaspiro[3.4]octan-7-yl)-3-(trifluoromethyl)picolinonitrile], the pIC50 on AR-VP16 [1] is under 6.00. Besides, at AR-VP16 [2], the “ARVP16 DNA Binding Assay” value is “No (Agonist defined as a compound whose Emax in the ARVP16 DNA Binding Assay (Agonist mode) is >20x DMSO control)”.
`Cc1ccc(-c2ccc(N3C(=S)N(c4cnc(C#N)c(C)c4)C(=O)C34CCC4)cc2)cn1` [Compound 96, 3-Methyl-5-(5-(4-(6-methylpyridin-3-yl)phenyl)-8-oxo-6-thioxo-5,7-diazaspiro[3.4]octan-7-yl)picolinonitrile]: the negative-log IC50 (pIC50) on AR-VP16 [1] was over 6.00. Besides, the “ARVP16 DNA Binding Assay” value on AR-VP16 [2] is “No (Agonist defined as a compound whose Emax in the ARVP16 DNA Binding Assay (Agonist mode) is >20x DMSO control)”.
Compound `Cc1ccncc1-c1ccc(N2C(=S)N(c3cnc(C#N)c(C)c3)C(=O)C23CCC3)cc1` [Compound 97, 3-Methyl-5-(5-(4-(4-methylpyridin-3-yl)phenyl)-8-oxo-6-thioxo-5,7-diazaspiro[3.4]octan-7-yl)picolinonitrile] had a negative-log IC50 (pIC50) at AR-VP16 [1] of over 6.00. For the same compound, at AR-VP16 [2], the “ARVP16 DNA Binding Assay” value was “Yes (Agonist defined as a compound whose Emax in the ARVP16 DNA Binding Assay (Agonist mode) is >20x DMSO control)”.
In the case of `Cc1cc(N2C(=O)C3(CCC3)N(c3ccc(-c4cccnc4C)cc3)C2=S)cnc1C#N` [Compound 99, 3-Methyl-5-(5-(4-(2-methylpyridin-3-yl)phenyl)-8-oxo-6-thioxo-5,7-diazaspiro[3.4]octan-7-yl)picolinonitrile], the negative-log IC50 (pIC50) at AR-VP16 [1] was over 6.00. In addition, the “ARVP16 DNA Binding Assay” value at AR-VP16 [2] is listed as “Yes (Agonist defined as a compound whose Emax in the ARVP16 DNA Binding Assay (Agonist mode) is >20x DMSO control)”.
At AR-VP16 [1], `Cc1cc(N2C(=O)C(C)(C)N(c3ccc(O)cc3)C2=S)cnc1C#N` [Compound 101, 5-(3-(4-Hydroxyphenyl)-4,4-dimethyl-5-oxo-2-thioxoimidazolidin-1-yl)-3-methylpicolinonitrile] had a negative logarithm of the IC50 (pIC50) of under 6.00. Besides, on AR-VP16 [2], the “ARVP16 DNA Binding Assay” value is listed as “No (Agonist defined as a compound whose Emax in the ARVP16 DNA Binding Assay (Agonist mode) is >20x DMSO control)”.
For `CNC(=O)c1ccc(N2C(=S)N(c3cnc(C#N)c(C)c3)C(=O)C23CCC3)c(F)c1` [Compound 104, 4-(7-(6-Cyano-5-methylpyridin-3-yl)-8-oxo-6-thioxo-5,7-diazaspiro[3.4]octan-5-yl)-3-fluoro-N-methylbenzamide], the pIC50 on AR-VP16 [1] is over 6.00. At AR-VP16 [2], the “ARVP16 DNA Binding Assay” value is listed as “No (Agonist defined as a compound whose Emax in the ARVP16 DNA Binding Assay (Agonist mode) is >20x DMSO control)”.
